# Experiment: MCRR in vitro release test of ibuprofen solution (flow medium) to external medium
# Assay type: physicochemical
smiles,measurement,setting,value
CC(C)Cc1ccc(C(C)C(=O)O)cc1 (centres unmarked) [ibuprofen],slope of ln (1-fraction released) vs. the exposure time,"exposure time in seconds, 15-300 seconds",−0.0102
same,percent released,"ibuprofen solution in 25 mM phosphate buffer as flow medium, exposure times up to 300 seconds (test time 291.3 minutes), 20° C, triplicate",~100%

# Reference: patent publication US20250027863A1, “METHOD OF CHARACTERIZATION OF RELEASE OF POORLY SOLUBLE MATERIALS AND UPTAKE IN COMPLEX LIQUIDS” (Zennova LLC, priority 2021, published 2025)
